Results on 2 molecules are retold here after PubChem BioAssay AID1259407 (Chemical Carcinogenesis Research Information System (CCRIS), 2018).

The data set relates to CCRIS mutagenicity, Ames/micronucleus/aberration tests. Put plainly: CCRIS mutagenicity studies.
Setting [1] is: Test System: AMES SALMONELLA TYPHIMURIUM, Strain/Indicator: TA98, Metabolic Activation: NONE, Method: STANDARD PLATE.
The mark [2] stands for this setting: Test System: AMES SALMONELLA TYPHIMURIUM, Strain/Indicator: TA100, Metabolic Activation: NONE, Method: STANDARD PLATE.
The mark [3] stands for this setting: Test System: AMES SALMONELLA TYPHIMURIUM, Strain/Indicator: TA100, Metabolic Activation: RAT, LIVER, S-9, AROCLOR 1254, Method: STANDARD PLATE.

The structures appear in SMILES notation. Activity calls are given as the source filed them. How the calls were made is not given here.

In the case of `Nc1cccc2cc3ccccc3cc12`, the mutagenic call reads like this: under setting [1], “inactive; negative”; (Test System: AMES SALMONELLA TYPHIMURIUM, Strain/Indicator: TA98, Metabolic Activation: RAT LIVER, CYTOSOL, AROCLOR 1254, Method: STANDARD PLATE) “inactive; negative”; (Test System: AMES SALMONELLA TYPHIMURIUM, Strain/Indicator: TA98, Metabolic Activation: RAT LIVER, MICROSOMES, AROCLOR 1254, Method: STANDARD PLATE) “active; positive”; (Test System: AMES SALMONELLA TYPHIMURIUM, Strain/Indicator: TA98, Metabolic Activation: RAT, LIVER, S-9, AROCLOR 1254 (2 OR 4%), Method: STANDARD PLATE) “active; positive”; (Test System: AMES SALMONELLA TYPHIMURIUM, Strain/Indicator: TA98, Metabolic Activation: RAT, LIVER, S-9, AROCLOR 1254, Method: STANDARD PLATE) “active; positive”; (Test System: AMES SALMONELLA TYPHIMURIUM, Strain/Indicator: TA98, Metabolic Activation: RAT, LIVER, S-9, PHENOBARBITAL, Method: STANDARD PLATE) “active; positive”. Further, the mutagenic call by setting is: under setting [2], “inactive; negative”; (Test System: AMES SALMONELLA TYPHIMURIUM, Strain/Indicator: TA100, Metabolic Activation: RAT, LIVER, S-9, AROCLOR 1254 (2%), Method: STANDARD PLATE) “inactive; negative”; under setting [3], “active; positive”; (Test System: AMES SALMONELLA TYPHIMURIUM, Strain/Indicator: TA100, Metabolic Activation: RAT, LIVER, S-9, PHENOBARBITAL, Method: STANDARD PLATE) “active; positive”; (Test System: AMES SALMONELLA TYPHIMURIUM, Strain/Indicator: TA1535, Metabolic Activation: RAT, LIVER, S-9, AROCLOR 1254 (2%), Method: STANDARD PLATE) “active; positive”; (Test System: AMES SALMONELLA TYPHIMURIUM, Strain/Indicator: TA1537, Metabolic Activation: RAT, LIVER, S-9, AROCLOR 1254 (2%), Method: STANDARD PLATE) “active; positive”. Moreover, the mutagenic call (Test System: MOUSE LYMPHOMA, Strain/Indicator: L5178Y (TK+/TK-), Metabolic Activation: RAT, LIVER, S-9, AROCLOR 1254, Method: SUSPENSION/PLATE) was “active; positive”.

As for `O=C1c2cccc(S(=O)(=O)O)c2C(=O)c2cccc([N+](=O)[O-])c21`, the mutagenic call is, setting by setting: under setting [1], “active; positive”; under setting [2], “inactive; negative”; under setting [3], “inactive; negative”; (Test System: AMES SALMONELLA TYPHIMURIUM, Strain/Indicator: TA1535, Metabolic Activation: NONE, Method: STANDARD PLATE) “inactive; negative”; (Test System: AMES SALMONELLA TYPHIMURIUM, Strain/Indicator: TA1535, Metabolic Activation: RAT, LIVER, S-9, AROCLOR 1254, Method: STANDARD PLATE) “inactive; negative”; (Test System: AMES SALMONELLA TYPHIMURIUM, Strain/Indicator: TA1537, Metabolic Activation: NONE, Method: STANDARD PLATE) “inactive; negative”. Moreover, the mutagenic call is “inactive; negative” (Test System: AMES SALMONELLA TYPHIMURIUM, Strain/Indicator: TA1537, Metabolic Activation: RAT, LIVER, S-9, AROCLOR 1254, Method: STANDARD PLATE); “active; positive” (Test System: AMES SALMONELLA TYPHIMURIUM, Strain/Indicator: TA1538, Metabolic Activation: NONE, Method: STANDARD PLATE); “inactive; negative” (Test System: AMES SALMONELLA TYPHIMURIUM, Strain/Indicator: TA1978, Metabolic Activation: NONE, Method: STANDARD PLATE).
